Measured values reported in patent publication US12479878B2, “Crystallization of 2′-FL” (Glycom A/S, priority 2020, dated 2025).

Experiments:
Format in all cases: physicochemical
[1] = Loss on drying of wet filter cake; conditions: for LoD relative to prior art: relative to WO 2016/095924 example 2 filter cake
Method: A sample of the slurry (75 ml) was collected and pressure filtered at 1 bar. Another sample of the slurry (75 ml) was collected, pressure filtered at 1 bar and the filter cake was washed with acetic acid (28 g). The washed and the unwashed solid wet filter cakes were dried overnight at 65° C. and 50 mbar generating loss on drying (LoD) of 17.3% and 23.2 respectively. The concentrations of 2′-FL and other impurities in the mother liquor as well as dried solids were assayed via HPLC. The unwashed dried crystalline material contained 95.3% of 2′-FL and yielded 81.5% of crystalline 2′-FL polymorph II, while the purity of the washed filter cake increased to 97.0%.
Then the filtration was continued for 60 sec. The so-obtained solid wet filter cake was dried overnight (14 hours) at 65° C. and 50 mbar, and loss of drying was determined (see data in the table below).

[2] = Pressure filtration of crystallization slurry (overall filtration rate); conditions: for filtration rate: 75 ml slurry pressure filtered at ΔP=1 bar, polypropylene filter cloth pore size about 3 μm, filtration area 13 cm^2, filtrate volume/(time·filter area); for filterability improvement relative to prior art: relative to WO 2016/095924 example 2 slurry
Method: A sample of the crystallization slurry (75 ml) after completing the crystallization from examples 1-3 above, respectively, and from the prior art (according to WO 2016/095924 example 2, with the difference that the procedure was conducted at 35° C. instead of room temperature and the concentrated syrup was of 62° Bx (140.2 g; containing 48.8 wt % of 2′-FL, 1.3 wt % of lactose and 5.4 wt % of DFL)) was collected and pressure filtered at ΔP=1 bar using a polypropylene filter cloth with a pore size of about 3 μm and a filtration area of 13 cm^2, and the time until the beginning of the liquid-gas mass transfer was measured. The filterability of the slurries was compared by calculating an overall filtration rate according to the following equation: filtrate volume [cm^3]/(time [sec]·filter area [cm^2]).

[3] = Water content of dried crystal powder by Karl-Fischer titration; conditions: dried crystals
Method: (§1) The water content of dried crystal powder was measured by Karl-Fischer titration. Residual AcOH content was measured using Megazyme K-ACETRM 07/12.

[4] = Residual AcOH content (Megazyme K-ACETRM 07/12); conditions: dried crystals
Method: as §1

[5] = unwashed solid wet filter cake dried overnight (14 hours) at 65° C. and 50 mbar
[6] = filter cake washed with acetic acid, dried overnight at 65° C. and 50 mbar

Structure (SMILES) | LoD (loss on drying) [1, 5] | filtration rate [2] | filterability improvement relative to prior art [2] | LoD (loss on drying) [1, 6] | LoD relative to prior art [1] | H2O content [3] | AcOH content [4]
C[C@@H]1OC(O[C@H]2[C@H](O[C@H]3[C@H](O)[C@@H](O)C(O)O[C@@H]3CO)O[C@H](CO)[C@H](O)[C@@H]2O)[C@@H](O)[C@H](O)[C@@H]1O (single isomer, unassigned) [Example 4, 2′-O-fucosyllactose] | 48.5% |  |  |  |  |  | 
C[C@@H]1OC(O[C@H]2[C@H](O[C@H]3[C@H](O)[C@@H](O)C(O)O[C@@H]3CO)O[C@H](CO)[C@H](O)[C@@H]2O)[C@@H](O)[C@H](O)[C@@H]1O (single isomer, unassigned) [Example 1, 2′-O-fucosyllactose] | 23.2% | 0.39 cm/s | 6.12x | 17.3% | 0.44-fold fold lower | 0.06 wt % | 0.15 wt %
C[C@@H]1OC(O[C@H]2[C@H](O[C@H]3[C@H](O)[C@@H](O)C(O)O[C@@H]3CO)O[C@H](CO)[C@H](O)[C@@H]2O)[C@@H](O)[C@H](O)[C@@H]1O (single isomer, unassigned) [Example 3, 2′-O-fucosyllactose] | 22.5% | 0.16 cm/s | 2.57x | 16.1% | 0.42-fold fold lower |  | 0.11 wt %
C[C@@H]1OC(O[C@H]2[C@H](O[C@H]3[C@H](O)[C@@H](O)C(O)O[C@@H]3CO)O[C@H](CO)[C@H](O)[C@@H]2O)[C@@H](O)[C@H](O)[C@@H]1O (single isomer, unassigned) [Example 2, 2′-O-fucosyllactose] | 24.7% | 0.62 cm/s | 9.78x |  | 0.46-fold fold lower | 0.05 wt % | 0.36 wt %
C[C@@H]1OC(O[C@H]2[C@H](O[C@H]3[C@H](O)[C@@H](O)C(O)O[C@@H]3CO)O[C@H](CO)[C@H](O)[C@@H]2O)[C@@H](O)[C@H](O)[C@@H]1O (stereo partly drawn) [WO 2016/095924, 2′-O-fucosyllactose, reference compound] | 52.9% | 0.064 cm/s |  |  |  | 0.63 wt % | 0.58 wt %
